Results taken from patent publication US5561131A, “Defaunation method” (Mallinckrodt Veterinary, Inc., priority 1991, dated 1996).

Tests used:
mice = assay: Mouse safety assessment; type: in vivo; details: oral gavage, 830, 415 and 217 mg/kg, observed for 2 days
Description: Compounds of Table 1 chosen for testing in sheep were first tested in mice for signs of toxicity. Because sheep are approximately 5 times more sensitive than mice to compounds dosed orally, the dose rates applied to mice were 5 times greater than the target dose rate of 500 ppm. in rumen liquor (83 mg/kg live weight) used for sheep. Each compound was screened at three different dose levels, high (830 mg/kg), medium (415 mg/kg) and low (217 mg/kg).
252 mg of compound was used for dilution into a high medium and low dose rate. 252 mg of compound was mixed with 3 ml of G1284 solution (4% w/v ethoxylated castor oil and 0.05% w/v simethicone), to form the high dose composition. The medium dose composition was formed by diluting 1.5 ml of the high dose with 1.5 ml of G1284 solution. The low dose composition was formed by diluting 1.5 ml of the medium dose with 1.5 ml of G1284 solution. Before the high dose could be diluted it was first manually ball milled in an effort to produce a fine suspension of the compound.
All mice were weighed before dosing to calculate the appropriate dose rate. The calculation for dose rate was: [formula]
Each mouse was dosed using the Gavage method. With this method the mouse is dosed orally by way of an angled hypodermic needle (18 g) with a smooth spherical end. It is gently placed down the esophagus. All care must be taken not to force the needle and injure the esophagus or dose into the lungs.
Observations were made at 10, 30, 60 and 120 minutes after dosing, then every 1 or 2 hours for the first 6 hours.
Mice were usually observed for 2 days.
Typically, few compounds fell within the poor classification. The majority of compounds tested were either in the fair or good classification.

protozoa = assay: Protozoal population number in growing lambs; type: in vivo, lambs (sheep)
Description: Three cross-bred lambs were defaunated with compound 37 at dose rate of 332 mg per kg liveweight. The lambs were allowed four weeks to adapt to defaunation before commencing the trial. The lambs were grazed at pasture. Ten control (faunated) cohorts of the defaunated group, which were matched for liveweight, were grazed in the same paddock, but separated from the defaunated lambs by a double-fence (4 meter separation). This was to prevent the faunated lambs contaminating the defaunated lambs. Both groups of lambs were weighed on four occasions at three weekly intervals. Protozoa were also monitored at the same time.

| SMILES | Mouse Safety Assessment (mice) | Protozoal numbers (protozoa; week 0, 332 mg/kg) | Protozoal numbers (protozoa; week 3, 332 mg/kg) | Protozoal numbers (protozoa; week 6, 332 mg/kg) | Protozoal numbers (protozoa; week 9, 332 mg/kg) | Protozoal numbers (protozoa; week 12, 332 mg/kg) |
| --- | --- | --- | --- | --- | --- | --- |
| Cc1ccc(Nc2nc(Cl)nc(Cl)n2)cc1Cl [Compound 27, 2,4 dichloro-6-(3 chloro-4-methylanilino)-s-triazine] | Fair (>2 mice sick) |  |  |  |  |  |
| Clc1nc(Cl)nc(Nc2ccccc2Cl)n1 [Compound 37, 2,4-dichloro-6-(2-chloroanilino)-1,3,5-triazine] |  | 0 per mL × 10^3 | 0 per mL × 10^3 | 0 per mL × 10^3 | 0 per mL × 10^3 | 0 per mL × 10^3 |
